Data on eight molecules can be found in ChEMBL document CHEMBL1201862, “PubChem BioAssay data set” (2004).

Calls of active or inactive are those of the source.

Assay [1] concerns the target Major prion protein (Homo sapiens, UniProt P04156). Type of assay: functional, cell-based.
The nature of assay [2]: cells.
Assay [3] in a line: Luminescence-based cell-based high throughput dose response assay to identify activators of the DAF-12 from the parasite S. stercoralis (ssDAF-12). Format: functional.
Assay [4] concerns the target T1, Oxysterols receptor LXR-beta (Homo sapiens, UniProt P55055).
T1 sequence (P55055 whole entry): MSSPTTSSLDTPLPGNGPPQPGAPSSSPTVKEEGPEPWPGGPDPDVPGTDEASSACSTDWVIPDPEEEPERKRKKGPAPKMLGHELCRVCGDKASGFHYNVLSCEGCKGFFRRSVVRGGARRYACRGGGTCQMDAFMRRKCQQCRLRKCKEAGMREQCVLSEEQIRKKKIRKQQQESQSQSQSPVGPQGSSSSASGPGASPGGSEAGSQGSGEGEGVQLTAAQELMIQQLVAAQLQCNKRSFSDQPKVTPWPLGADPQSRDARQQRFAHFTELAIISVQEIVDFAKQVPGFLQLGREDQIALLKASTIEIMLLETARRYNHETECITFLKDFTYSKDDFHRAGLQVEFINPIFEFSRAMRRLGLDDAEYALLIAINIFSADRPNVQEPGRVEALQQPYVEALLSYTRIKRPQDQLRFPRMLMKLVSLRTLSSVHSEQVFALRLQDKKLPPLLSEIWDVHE
The assay is described as follows: LXR agonists, Gal4 luciferase reporter, dose response, counter-screen for ssDAF-12 agonist project, cell-based, luminescence, HEK293, S. stercoralis campaign (AID 720737). As to conditions: read-out: IC50 (the source's name). Type of assay: functional. For orientation: Reporter assays use an easily measured gene product as a stand-in for the process of interest.

A short description of assay [5]: IC50 of Artemis nuclease activity blockers – biochemical, fluorescence intensity, dose response (AID 720701).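 Note: Artemis endonuclease enzyme.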 Type of assay: functional.
A short description of assay [6]: viability of PTEN-deleted HCT116 cells – cell-based, HCT116 PTEN knockout, dose response (AID 1047).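 Note: HCT116 colon tumor cells with PTEN knocked out; cells exposed to compound for 60 hours before readout; potency for loss of cell viability measured by luminescence.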 Type of assay: functional.
The nature of assay [7]: viability of HCT116 lacking mutant beta-catenin – cell-based, human colon tumor, dose response (AID 1045).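 Note: HCT116 colon tumor cells with beta catenin knocked out; cells exposed to compound for 60 hours.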 Type of assay: functional.
Assay [8] is described as follows: THP-1 cell cytotoxicity, dose response, cytotoxicity control for non-replicating M. tuberculosis project (AID 489025). Type of assay: functional.
Assay [9] is described as follows: microbe, parasite or virus in culture. Format: functional. The conditions noted are these: Mycobacterium tuberculosis.
The target of assay [10] is T2, Protein RecA (Mycobacterium tuberculosis, UniProt P9WHJ3).
T2 sequence (P9WHJ3 whole entry): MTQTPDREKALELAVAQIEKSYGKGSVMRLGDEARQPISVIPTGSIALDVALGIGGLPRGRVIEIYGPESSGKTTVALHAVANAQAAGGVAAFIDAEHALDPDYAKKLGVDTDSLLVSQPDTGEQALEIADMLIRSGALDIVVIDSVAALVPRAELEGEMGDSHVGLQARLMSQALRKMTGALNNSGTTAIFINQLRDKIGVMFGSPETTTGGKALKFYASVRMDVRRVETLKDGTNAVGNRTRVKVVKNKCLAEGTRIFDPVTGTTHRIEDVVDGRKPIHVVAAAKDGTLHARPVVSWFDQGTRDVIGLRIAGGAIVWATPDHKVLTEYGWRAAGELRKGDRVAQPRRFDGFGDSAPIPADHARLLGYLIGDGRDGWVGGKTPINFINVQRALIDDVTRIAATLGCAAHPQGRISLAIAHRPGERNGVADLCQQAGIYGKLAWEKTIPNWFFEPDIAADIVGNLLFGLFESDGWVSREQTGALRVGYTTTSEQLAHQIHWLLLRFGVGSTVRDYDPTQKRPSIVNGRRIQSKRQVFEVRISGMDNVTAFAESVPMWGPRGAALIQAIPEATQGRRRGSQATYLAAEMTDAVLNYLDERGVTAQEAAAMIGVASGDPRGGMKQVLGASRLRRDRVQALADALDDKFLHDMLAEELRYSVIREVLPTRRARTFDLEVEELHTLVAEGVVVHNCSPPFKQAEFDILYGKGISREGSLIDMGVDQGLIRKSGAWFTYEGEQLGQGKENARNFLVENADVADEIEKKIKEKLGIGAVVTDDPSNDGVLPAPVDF
The assay can be described thus: Fluorescence Cell-Free Homogeneous Dose Retest to Identify Inhibitors of RecA-Intein Splicing Activity. [Related pubchem assays (depositor defined):AID2097, AID2223, AID489010, AID492950]. Format: functional.

Assay [11] addresses 1-phosphatidylinositol 4,5-bisphosphate phosphodiesterase beta-3 (Homo sapiens, UniProt Q01970). The assay is described as follows: Fluorescence-based biochemical high throughput dose response assay to identify inhibitors of phospholipase C isozymes (PLC-B3).
Assay [12] is described as follows: cells. Format: functional.
The target of assay [13] is T3, Replicative DNA helicase DnaB (Mycobacterium tuberculosis, UniProt P9WMR3).
T3 sequence (P9WMR3 whole entry): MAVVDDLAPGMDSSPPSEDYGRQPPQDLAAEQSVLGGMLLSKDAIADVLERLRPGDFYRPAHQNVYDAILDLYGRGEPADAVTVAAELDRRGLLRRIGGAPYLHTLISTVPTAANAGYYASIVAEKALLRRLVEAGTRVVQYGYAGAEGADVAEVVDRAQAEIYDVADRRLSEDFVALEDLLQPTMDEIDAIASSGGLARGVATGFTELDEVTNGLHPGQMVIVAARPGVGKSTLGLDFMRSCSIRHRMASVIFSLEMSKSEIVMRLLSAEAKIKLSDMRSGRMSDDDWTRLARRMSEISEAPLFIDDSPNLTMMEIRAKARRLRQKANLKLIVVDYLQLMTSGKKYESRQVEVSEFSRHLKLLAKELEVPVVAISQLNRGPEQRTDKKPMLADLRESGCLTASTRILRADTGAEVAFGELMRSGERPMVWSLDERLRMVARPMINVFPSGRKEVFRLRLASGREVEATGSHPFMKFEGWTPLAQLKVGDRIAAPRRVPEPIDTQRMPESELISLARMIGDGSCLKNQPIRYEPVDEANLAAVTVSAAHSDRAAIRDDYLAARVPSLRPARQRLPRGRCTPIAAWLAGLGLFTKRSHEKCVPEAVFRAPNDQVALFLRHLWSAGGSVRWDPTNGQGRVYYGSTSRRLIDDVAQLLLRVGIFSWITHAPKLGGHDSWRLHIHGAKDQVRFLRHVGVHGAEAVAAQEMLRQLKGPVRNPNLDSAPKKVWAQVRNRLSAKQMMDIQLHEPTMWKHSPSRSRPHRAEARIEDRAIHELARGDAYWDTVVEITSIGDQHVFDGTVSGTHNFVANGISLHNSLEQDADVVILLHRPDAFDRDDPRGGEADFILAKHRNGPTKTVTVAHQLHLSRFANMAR
The assay can be described thus: DnaB intein splicing inhibitors, dose response, biochemical, cell-free fluorescence (AID 449749). Format: functional.

For assay [14], the target named is 1-phosphatidylinositol 4,5-bisphosphate phosphodiesterase gamma-1 (Homo sapiens, UniProt P19174). The assay is described as follows: Counterscreen for inhibitors of phospholipase C isozymes (PLC-B3): Fluorescence-based biochemical high throughput dose response assay to identify inhibitors of phospholipase C isozymes (PLC-gamma1). (In general: The purpose of a counterscreen is to sort out artefacts and off-target activity.)

Assay [15] has as its target Tyrosyl-DNA phosphodiesterase 2 (Homo sapiens, UniProt O95551). The assay is described as follows: potency against TDP2 phosphodiesterase activity – biochemical, epi absorbance, IC50, dose response (AID 743297).
A short description of assay [16]: viability loss in THP-1 monocytes – THP-1 cells, cytotoxicity control for Vif-APOBEC3G degradation inhibitor project, dose response (AID 1117359). Type of assay: functional. The conditions noted are these: THP-1.
The target in assay [17] is NAD-dependent protein deacylase sirtuin-5, mitochondrial (Homo sapiens, UniProt Q9NXA8). The assay is described as follows: blockers of sirtuin-5 peptide desuccinylation – biochemical, fluorescence imaging, cherry-pick, set 6, dose response (AID 720597).
Assay [18] can be described thus: general cell-killing toxicity readout – plate reader, dry powder samples, cytotoxicity control for PAX8 inhibitor project, dose response (AID 743021). Format: functional, cell-based.
A short description of assay [19]: IGROV1 cell killing – plate reader, dry powder samples, PAX8 inhibitor project, dose response (AID 743043). Format: functional, cell-based. As to conditions: IGROV-1.
A short description of assay [20]: OVCAR8 cell viability loss – plate reader, dry powder samples, PAX8 project, dose response (AID 743197). As to conditions: OVCAR-8. Type of assay: functional, cell-based.
The target of assay [21] is Paired box protein Pax-8 (Homo sapiens, UniProt Q06710). The assay can be described thus: PAX8 transcriptional activity inhibition in RMG-I – RMG-I cells, luciferase, cherry-pick, dose response (AID 687027).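 Note: luciferase reporter driven by Pax8 target thyroperoxidase promoter measured by SteadyGlo luminescence.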 Format: functional, cell-based.
Assay [22] is described as follows: OVCAR-3 cell viability loss – plate reader, dry powder samples, PAX8 inhibitor project, dose response (AID 743044). Type of assay: functional, cell-based.
Assay [23] in a line: A2780 cell killing – plate reader, dry powder samples, cytotoxicity control, dose response (AID 743046). Type of assay: functional, cell-based.
Assay [24] in a line: viability loss in HepG2 liver cells – cell-based, ATP luminescence, cherry-pick, set 6, cytotoxicity control, dose response (AID 1053125). Format: functional.

Chain of Paired box protein Pax-8 (Q06710 whole entry): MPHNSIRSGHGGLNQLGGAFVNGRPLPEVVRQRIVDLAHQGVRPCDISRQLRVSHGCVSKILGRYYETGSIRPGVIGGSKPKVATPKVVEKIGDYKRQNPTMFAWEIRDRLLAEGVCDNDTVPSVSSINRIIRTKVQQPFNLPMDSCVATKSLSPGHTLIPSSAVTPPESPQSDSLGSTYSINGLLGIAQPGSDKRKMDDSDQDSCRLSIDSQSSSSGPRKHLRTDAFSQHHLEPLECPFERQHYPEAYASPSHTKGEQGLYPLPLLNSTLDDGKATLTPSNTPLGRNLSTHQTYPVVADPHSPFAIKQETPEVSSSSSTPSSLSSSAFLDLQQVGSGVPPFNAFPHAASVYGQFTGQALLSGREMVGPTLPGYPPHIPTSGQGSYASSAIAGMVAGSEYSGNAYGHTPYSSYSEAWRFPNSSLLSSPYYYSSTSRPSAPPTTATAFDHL
Chain of Tyrosyl-DNA phosphodiesterase 2 (O95551 whole entry): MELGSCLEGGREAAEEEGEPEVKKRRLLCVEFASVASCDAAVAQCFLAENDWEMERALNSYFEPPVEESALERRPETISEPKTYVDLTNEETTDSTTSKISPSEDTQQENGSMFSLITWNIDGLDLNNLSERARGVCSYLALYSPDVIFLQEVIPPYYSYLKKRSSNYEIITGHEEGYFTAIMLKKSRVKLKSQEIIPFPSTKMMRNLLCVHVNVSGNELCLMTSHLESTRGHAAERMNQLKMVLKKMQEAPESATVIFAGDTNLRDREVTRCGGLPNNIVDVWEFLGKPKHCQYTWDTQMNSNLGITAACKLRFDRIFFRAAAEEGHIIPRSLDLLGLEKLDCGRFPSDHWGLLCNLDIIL
Chain of NAD-dependent protein deacylase sirtuin-5, mitochondrial (Q9NXA8 whole entry): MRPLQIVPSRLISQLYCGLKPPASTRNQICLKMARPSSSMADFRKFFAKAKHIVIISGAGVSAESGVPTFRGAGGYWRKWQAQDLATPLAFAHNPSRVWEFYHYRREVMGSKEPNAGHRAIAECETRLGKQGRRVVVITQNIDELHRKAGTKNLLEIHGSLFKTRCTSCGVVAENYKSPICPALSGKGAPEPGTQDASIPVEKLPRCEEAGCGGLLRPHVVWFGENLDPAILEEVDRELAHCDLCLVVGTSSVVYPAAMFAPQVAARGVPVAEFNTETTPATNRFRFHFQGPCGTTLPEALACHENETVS
Chain of 1-phosphatidylinositol 4,5-bisphosphate phosphodiesterase gamma-1 (P19174 whole entry): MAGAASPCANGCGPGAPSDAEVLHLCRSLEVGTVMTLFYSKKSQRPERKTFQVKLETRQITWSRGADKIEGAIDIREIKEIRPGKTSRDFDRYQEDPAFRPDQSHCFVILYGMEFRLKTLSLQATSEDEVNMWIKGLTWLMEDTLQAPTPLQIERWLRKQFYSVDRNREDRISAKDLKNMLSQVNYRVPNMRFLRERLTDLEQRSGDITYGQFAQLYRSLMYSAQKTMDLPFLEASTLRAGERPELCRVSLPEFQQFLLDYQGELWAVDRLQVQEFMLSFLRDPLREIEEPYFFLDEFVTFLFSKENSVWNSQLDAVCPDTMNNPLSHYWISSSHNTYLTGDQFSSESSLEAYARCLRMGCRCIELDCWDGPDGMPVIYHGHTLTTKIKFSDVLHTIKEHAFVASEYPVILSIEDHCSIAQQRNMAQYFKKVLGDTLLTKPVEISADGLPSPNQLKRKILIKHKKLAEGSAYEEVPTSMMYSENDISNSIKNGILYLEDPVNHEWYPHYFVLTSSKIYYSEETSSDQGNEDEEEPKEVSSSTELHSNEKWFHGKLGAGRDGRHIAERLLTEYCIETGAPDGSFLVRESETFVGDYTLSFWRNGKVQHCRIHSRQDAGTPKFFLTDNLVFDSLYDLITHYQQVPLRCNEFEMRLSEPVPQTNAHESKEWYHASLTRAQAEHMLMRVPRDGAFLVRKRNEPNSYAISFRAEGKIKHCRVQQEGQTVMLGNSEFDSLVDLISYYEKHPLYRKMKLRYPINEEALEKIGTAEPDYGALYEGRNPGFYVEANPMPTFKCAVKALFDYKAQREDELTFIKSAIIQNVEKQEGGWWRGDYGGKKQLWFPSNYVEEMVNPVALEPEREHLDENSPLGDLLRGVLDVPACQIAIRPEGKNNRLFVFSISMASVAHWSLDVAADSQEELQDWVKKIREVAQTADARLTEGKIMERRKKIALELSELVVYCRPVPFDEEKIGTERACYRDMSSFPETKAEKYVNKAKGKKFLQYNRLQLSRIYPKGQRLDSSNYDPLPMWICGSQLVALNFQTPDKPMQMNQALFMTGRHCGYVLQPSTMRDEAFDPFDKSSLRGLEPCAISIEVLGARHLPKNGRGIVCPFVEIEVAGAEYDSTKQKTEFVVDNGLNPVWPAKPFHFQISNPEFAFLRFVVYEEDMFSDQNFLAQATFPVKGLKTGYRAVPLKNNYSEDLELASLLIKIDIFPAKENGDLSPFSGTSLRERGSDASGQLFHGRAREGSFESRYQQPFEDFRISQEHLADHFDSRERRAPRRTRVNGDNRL
Chain of 1-phosphatidylinositol 4,5-bisphosphate phosphodiesterase beta-3 (Q01970 whole entry): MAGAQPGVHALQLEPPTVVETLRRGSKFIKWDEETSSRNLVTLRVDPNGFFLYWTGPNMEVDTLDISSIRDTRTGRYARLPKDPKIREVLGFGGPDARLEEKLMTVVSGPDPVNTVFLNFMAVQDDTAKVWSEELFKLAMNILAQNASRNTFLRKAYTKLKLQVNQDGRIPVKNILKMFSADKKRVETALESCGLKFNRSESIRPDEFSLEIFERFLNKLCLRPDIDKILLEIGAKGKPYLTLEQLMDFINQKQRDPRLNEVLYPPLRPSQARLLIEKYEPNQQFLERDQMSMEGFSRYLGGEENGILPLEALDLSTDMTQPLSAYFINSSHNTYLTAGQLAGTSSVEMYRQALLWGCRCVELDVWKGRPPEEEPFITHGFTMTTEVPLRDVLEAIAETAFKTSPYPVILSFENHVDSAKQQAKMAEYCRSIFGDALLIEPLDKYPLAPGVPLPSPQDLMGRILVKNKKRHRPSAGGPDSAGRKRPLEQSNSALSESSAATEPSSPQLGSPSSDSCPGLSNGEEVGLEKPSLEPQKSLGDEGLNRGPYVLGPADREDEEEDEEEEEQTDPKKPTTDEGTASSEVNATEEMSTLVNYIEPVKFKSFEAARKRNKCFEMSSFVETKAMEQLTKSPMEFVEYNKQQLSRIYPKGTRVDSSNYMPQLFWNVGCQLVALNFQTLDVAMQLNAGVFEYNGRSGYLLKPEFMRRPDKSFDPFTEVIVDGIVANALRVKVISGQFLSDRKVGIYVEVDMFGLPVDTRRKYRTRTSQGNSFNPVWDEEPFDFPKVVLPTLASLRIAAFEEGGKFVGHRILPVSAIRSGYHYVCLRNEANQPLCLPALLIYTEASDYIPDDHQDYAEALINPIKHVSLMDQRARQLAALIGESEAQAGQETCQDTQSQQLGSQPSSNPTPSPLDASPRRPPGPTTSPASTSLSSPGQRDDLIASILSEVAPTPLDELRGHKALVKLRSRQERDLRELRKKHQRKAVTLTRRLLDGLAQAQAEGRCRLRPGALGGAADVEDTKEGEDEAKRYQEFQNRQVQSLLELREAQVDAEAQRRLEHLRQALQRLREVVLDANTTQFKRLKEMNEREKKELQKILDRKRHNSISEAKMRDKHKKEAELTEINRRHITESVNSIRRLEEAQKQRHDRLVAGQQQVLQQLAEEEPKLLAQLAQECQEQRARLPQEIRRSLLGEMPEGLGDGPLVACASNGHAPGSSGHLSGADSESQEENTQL

One may read the IC50 as the concentration at which inhibition is half-maximal. Consider `c1ccc2sc(Nc3nc4cc5c(cc4s3)OCO5)nc2c1`, for which the IC50 in assay [1] is 8.57 µM (active); in assay [2] it was > 138 µM (inactive).

With `O=C(CCn1c(=S)oc2ccccc21)NC1CCCCC1`, the IC50 in assay [3] was > 67.6 µM (inactive). Further, the EC50 in [4] was > 67.6 µM (inactive).

`COc1ccc(Nc2nc(Nc3ccc(OC)cc3)nc(SC3=NCCS3)n2)cc1`: in assay [5], the half-inhibitory concentration (IC50) is 1.68 µM (active). Besides, the EC50 was 40.1 µM (active) in assay [6] and 71.1 µM (active) in assay [7].

Usually AC50 stands for the concentration at which the activity in the assay is half-maximal. Regarding `Cc1c([N+](=O)[O-])cnc(Sc2ccccc2)c1[N+](=O)[O-]`, the CC50 in [8] was 26.1 µM (active); in assay [9] it was 30.3 µM (active). The EC50 in [10] was 0.0479 µM (active). Further, the results for the IC50 in [11], in assay [12] and in assay [14] were > 122 µM (inactive), 7.94 µM (active) and > 122 µM (inactive), respectively. Further, the half-maximal activity concentration (AC50) in assay [13] was 0.181 µM (active).

In the case of `CCOc1ccc(NC2=CC(=O)C(=O)c3ccccc32)cc1`, in [15], the IC50 is > 128 µM (inactive).

As for `Cc1noc(C)c1S(=O)(=O)Nc1ccc2c(c1)C(=O)N([C@@H](C)CO)C[C@H](C)[C@@H](CN(C)Cc1ccc(C(F)(F)F)cc1)OCCCC[C@H](C)O2`, the CC50 in assay [16] was 16.7 µM (active). Further, the AC50 in assay [17] was 12.2 µM (active).

`C[C@@H]1CN([C@H](C)CO)C(=O)c2cc(NC(=O)Nc3ccc(C(F)(F)F)cc3)ccc2O[C@@H](C)CCCCO[C@@H]1CN(C)Cc1ccccc1`: the concentration at half-maximal activity (AC50) was 68 µM (active) in assay [18]; 40.2 µM (active) in assay [19]; 21.5 µM (active) in assay [20]; 6.4 µM (active) in assay [21]; 23 µM (active) in assay [22]; 22.3 µM (active) in assay [23].

Take `Cc1c(C(=O)NCc2ccc3c(c2)OCCO3)sc(=O)n1Cc1ccccc1F`: the AC50 in assay [24] was > 52 µM (inactive).
